≈ marks a conversion by molar mass, not a printed value.
What was measured:
human URAT1 = target: T1, human URAT1 (Homo sapiens, UniProt Q96S37); assay: URAT1 inhibition: 14C-uric acid uptake in MDCK2 cells stably expressing human URAT1; type: cell-based; conditions: for IC50: read-out: IC50 (test substance concentration at which URAT1 was inhibited 50%) (converted); for URAT1 inhibition rate (result in words, FIGS. 1 to 4): test substance 1 to 200 μg/mL, uric acid uptake vs DMSO control
T1 construct: expressed in transfected cells
T1 sequence (Q96S37 1-553): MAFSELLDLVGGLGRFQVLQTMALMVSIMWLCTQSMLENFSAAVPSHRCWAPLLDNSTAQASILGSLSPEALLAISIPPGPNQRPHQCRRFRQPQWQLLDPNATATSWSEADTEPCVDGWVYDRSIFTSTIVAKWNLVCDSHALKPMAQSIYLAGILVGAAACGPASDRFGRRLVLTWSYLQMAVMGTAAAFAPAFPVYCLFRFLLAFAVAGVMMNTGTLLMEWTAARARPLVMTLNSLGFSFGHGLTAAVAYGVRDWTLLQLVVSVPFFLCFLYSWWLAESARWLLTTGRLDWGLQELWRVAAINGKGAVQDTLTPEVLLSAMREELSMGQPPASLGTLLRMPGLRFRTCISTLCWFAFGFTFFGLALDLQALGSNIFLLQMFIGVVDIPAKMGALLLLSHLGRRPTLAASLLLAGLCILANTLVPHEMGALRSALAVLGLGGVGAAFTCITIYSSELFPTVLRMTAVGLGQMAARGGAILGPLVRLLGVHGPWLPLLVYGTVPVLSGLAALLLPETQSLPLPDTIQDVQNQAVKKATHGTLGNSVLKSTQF
Experimental: Each test substance was dissolved in dimethyl sulfoxide (DMSO) and added to HBSS to give a test substance concentration of 1, 5, 10, 15, 20, 40, 60, 80, 100, or 200 μg/mL. […] Uric acid was added to HBSS to give a concentration of 20 μM. Subsequently, the cells were washed again with HBSS, and then dissolved in a 0.1 N sodium hydroxide aqueous solution. The radiation dose of 14 C in the solution was measured by a liquid scintillation counter, and the uptake amount of uric acid into the cells was measured. A positive control was provided by adding benzbromarone at 30 μM. A test substance non-addition group as a control was provided by adding only DMSO to HBSS (DMSO concentration: 1%). The tests were performed with n=3 for the control and for the test substances at each concentration. […] The uptake amount of uric acid was determined with an average of n=3. The calculation formula of the URAT1 inhibition rate (%) is as follows. The control group is the test substance non-addition group.
Inhibition rate (%)=100×{((uptake amount of uric acid in control group)−(uptake amount of uric acid in test substance addition group))/uptake amount of uric acid in control group}

[1] = high temperature of 100° C.; cited from earlier work
[2] = MDCK2 cells expressing human URAT1, 14C-uric acid 20 μM, 10 minutes, n=3

| SMILES | IC50 (human URAT1; [2]) [µM] | URAT1 inhibition rate (result in words, FIGS. 1 to 4) (human URAT1) | IC50 (test substance concentration at which URAT1 was inhibited 50%) (human URAT1; [2]) [µg/mL] | Thermal stability [1] | inhibition at 30 µM (human URAT1; MDCK2, read-out: URAT1 inhibition rate) [%] |
| --- | --- | --- | --- | --- | --- |
| O=C1C[C@@H](c2ccc(O)c(O)c2)Oc2cc(O)cc(O)c21 [Eriodictyol, eriodictyol] | 43.5 | significant increase in the inhibition rate |  |  |  |
| COc1ccc([C@@H]2CC(=O)c3c(O)cc(O[C@@H]4O[C@H](CO[C@@H]5O[C@@H](C)[C@H](O)[C@@H](O)[C@H]5O)[C@@H](O)[C@H](O)[C@H]4O)cc3O2)cc1O [Hesperidin, hesperidin] |  | significant increase in the inhibition rate | 16.97 (≈ 27.8 µM) |  |  |
| COc1cc(O)c(CC=C(C)C)c2c1C(=O)CC(c1ccc(O)cc1)O2 (centres unmarked) [Isoxanthohumol, isoxanthohumol] | 25.1 | significant increase in the inhibition rate |  | stable even at a high temperature of 100 °C |  |
| O=C1C[C@@H](c2ccc(O)cc2)Oc2cc(O)cc(O)c21 [Naringenin, naringenin] | 41.9 | significant increase in the inhibition rate |  |  |  |
| CCc1oc2ccccc2c1C(=O)c1cc(Br)c(O)c(Br)c1 [benzbromarone, reference compound] |  |  |  |  | 99 to 100 |
| COc1cc(O)c(CC=C(C)C)c(O)c1C(=O)/C=C/c1ccc(O)cc1 [xanthohumol, reference compound] |  | did not show a significant increase in the inhibition rate |  |  |  |
